Literature values, collected in US5994297A, “Therapy for Staphylococcus aureus” (Eli Lilly and Company, priority 1998, dated 1999).

Tested on: Staphylococcus aureus strain "Mu50"
Conditions: Staphylococcus aureus strain Mu50 (MRSA, reduced glycopeptide sensitivity); Hiramatsu et al., J. of Antimicrobial Chemotherapy, 1997, 40, 135-146

## CN[C@H](CC(C)C)C(=O)N[C@H]1C(=O)N[C@@H](CC(N)=O)C(=O)N[C@H]2C(=O)N[C@H]3C(=O)N[C@H](C(=O)N[C@H](C(=O)O)c4cc(O)cc(O)c4-c4cc3ccc4O)[C@H](O)c3ccc(c(Cl)c3)Oc3cc2cc(c3O[C@@H]2O[C@H](CO)[C@@H](O)[C@H](O)[C@H]2O[C@H]2C[C@](C)(N)[C@H](O)[C@H](C)O2)Oc2ccc(cc2Cl)[C@H]1O [vancomycin]
  vancomycin MIC: 8 µg/mL
